Laboratory results taken from patent publication US20240252440A1, “COMPOSITIONS, METHODS AND SYSTEMS FOR AEROSOL DRUG DELIVERY” (ASTRAZENECA PHARMACEUTICALS LP, priority 2021, published 2024).

Experiment: Particle size distribution by laser diffraction
Assay type: physicochemical
Excerpt: When referred to herein, the term “optical diameter” indicates the size of a particle as measured by the Fraunhofer diffraction mode using a laser diffraction particle size analyzer equipped with a dry powder dispenser (e.g., Sympatec GmbH, Clasthal-Zellerfeld, Germany).
Suspending particles were manufactured by spray drying an emulsion of PFOB (perfluorooctyl bromide) and water stabilized by DSPC (1,2-Distearoyl-sn-Glycero-3-Phosphocholine). […] The particle size distribution of the suspending particles was determined by laser diffraction.
Active agent particles formed of budesonide, 16,17-(butylidenebis(oxy))-11,21-dihydroxy-(11-β,16-α)-pregna-1,4-diene-3,20-dione, were formed by micronizing budesonide using a jet mill. The particle size distribution of the budesonide (BD) was determined by laser diffraction.

Row | Compound | optical diameter exhibited by 50% by volume of the particles | optical diameter exhibited by 90% by volume of the particles
1 | COc1ccc(CC(C)NCC(O)c2ccc(O)c(NC=O)c2)cc1.O=C(O)/C=C/C(=O)O (racemic) [formoterol fumarate, (±)-2-hydroxy-5-[(1RS)-1-hydroxy-2-[[(1RS)-2-(4-methoxyphenyl)-1-methylethyl]-amino]ethyl]formanilide fumarate] | smaller than 1.6 μm | smaller than 3.9 μm
2 | C[N+]1(C)CCC(OC(=O)C(O)(c2ccccc2)C2CCCC2)C1.[Br-] (stereo not drawn) [glycopyrrolate, Pyrrolidinium, 3-((cyclopentylhydroxyphenylacetyl)oxy)-1,1-dimethyl-, bromide] | smaller than 2.1 μm | smaller than 5 μm
3 | albuterol sulfate | smaller than 1.5 μm | smaller than 3.3 μm
